Square brackets hold non-standard residues; d marks the D form. Ends that are not written are not given here. Peptide text beside a SMILES is read from it. hArg = N=C(N)NCCCC[C@H](N)C(=O)O; Nle = CCCC[C@H](N)C(=O)O; Aib = CC(C)(N)C(=O)O
What was measured:
[1] = biological target: T1, PTH-1 receptor endogenously expressed in SaOS-2 cells (Homo sapiens, UniProt Q03431); test: cAMP stimulation in SaOS-2 cells; type: cell-based; conditions: for EMAX(obs.): cAMP, basal 6.4 ± 0.8
T1 construct: endogenously expressed relatively low levels of the PTH-1 receptor; endogenous in cells; host or cells: SaOS-2 (SaOS-2-B10) human osteosarcoma cells
T1 sequence (Q03431 27-593): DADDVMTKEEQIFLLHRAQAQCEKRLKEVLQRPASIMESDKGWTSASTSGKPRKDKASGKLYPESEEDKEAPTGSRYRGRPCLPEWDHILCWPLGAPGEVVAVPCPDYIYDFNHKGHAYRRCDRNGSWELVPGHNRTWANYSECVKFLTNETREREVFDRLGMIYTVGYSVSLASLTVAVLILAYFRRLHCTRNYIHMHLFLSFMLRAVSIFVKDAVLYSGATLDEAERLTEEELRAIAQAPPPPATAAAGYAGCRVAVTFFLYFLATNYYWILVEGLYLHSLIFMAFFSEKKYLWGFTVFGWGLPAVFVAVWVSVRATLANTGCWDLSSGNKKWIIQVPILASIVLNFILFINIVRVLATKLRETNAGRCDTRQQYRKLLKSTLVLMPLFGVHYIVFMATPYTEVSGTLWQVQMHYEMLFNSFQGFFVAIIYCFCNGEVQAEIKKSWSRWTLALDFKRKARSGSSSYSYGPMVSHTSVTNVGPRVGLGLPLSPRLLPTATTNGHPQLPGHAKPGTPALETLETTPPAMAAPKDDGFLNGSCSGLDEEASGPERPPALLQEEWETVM
Experimental: (§1) Cell Culture. The cell line HKRK-B28 (Takasu, H., et al., J. Bone Miner. Res. 14:11-20 (1999)) was derived from the porcine kidney cell line, LLC-PK1 by stable transfection with plasmid DNA encoding the human P1R and expresses ˜280,000 receptors per cell. These cells, as well as COS-7 cells and SaOS-2-B10 cells, were cultured at […] in T-75 flasks ([…]) in Dulbecco's modified Eagle's medium (DMEM) supplemented with fetal bovine serum (10%), penicillin G (20 units/ml), streptomycin sulfate (20 μg/ml) and amphotericin B (0.05 μg/ml) in a humidified atmosphere containing 5% CO2. Stock solutions of EGTA/trypsin and antibiotics were from GIBCO; fetal bovine serum was from Hyclone Laboratories (Logan, Utah). COS-7 cells sub-cultured in 24-well plates were transfected with plasmid DNA (200 ng per well) encoding the wild-type human P1R or truncated human P1R deleted for residues (24-181) (Shimizu, M., et al., J. Biol. Chem. 275:21836-21843 (2000)) that was purified by cesium chloride/ethidium bromide density gradient centrifugation, and FuGENE 6 transfection reagent (Roche Indianapolis Ind.) according to the manufacturer's recommended procedure. All cells, in 24-well plates, were treated with fresh media and shifted to 33° C. for 12 to 24 h prior to assay.
(§2) cAMP Stimulation. Stimulation of cells with peptide analogs was performed in 24-well plates. Cells were rinsed with 0.5 mL of binding buffer (50 mM Tris-HCI, […], 5 mM KCl, 2 mM CaCl2, 5% heat-inactivated horse serum, 0.5% fetal bovine serum, adjusted to pH 7.5 with HCl) and treated with 200 μL of cAMP assay buffer (Delbecco's modified Eagle's medium containing 2 mM 3-isobutyl-1-methylxanthine, 1 mg/mL bovine serum albumin, 35 mM Hepes-NaOH, pH 7.4) and 100 μL of binding buffer containing varying amounts of peptide analog (final volume=300 μL). The medium was removed after incubation for 30 to 60 minutes at room temperature, and the cells were frozen on dry ice, lysed with 0.5 mL 50 mM HCl, and refrozen ([…]). The cAMP content of the diluted lysate was determined by radioimmunoassay. The EC50 response values were calculated using nonlinear regression (see below).
(§3) Data Calculation. Calculations were performed using Microsoft® Excel. Nonlinear regression analyses of binding and cAMP dose-response data were performed using the four-parameter equation: yp=Min+[(Max−Min)/(1+(IC50/x)^slope)]. The Excel Solver function was utilized for parameter optimization, as described previously (Carter, P. H., et al., Endocrinology 140: 4972-4981 (1999); Bowen, W. P., and Jerman, J. C., Trends in Pharmacol. Sci. 16: 413-417 (1995)). Differences between paired data sets were statistically evaluated using a one-tailed Student's t-test, assuming unequal variances for the two sets.
The number of PTH-1 receptors expressed on the surface of the PTH target cells in bone or kidney is uncertain, but it is likely to be considerably lower than that found in HKRK-B28 cells. Therefore, several of the Aib-mounted PTH analogs were evaluated using SaOS-2 cells.

human P1R [2] = biological target: T2, human P1R (Homo sapiens, UniProt Q03431); test: Competition binding in HKRK-B28 cells; conditions: HKRK-B28 cells
T2 construct: expressed in transfected cells; host or cells: HKRK-B28 (porcine kidney LLC-PK1, stably transfected)
T2 sequence (Q03431 27-593): T1 sequence (Q03431 27-593)
Experimental: as §1
(§4) Competition Binding. Binding reactions were performed with HKRK-B28 cells or in COS-7 cells in 24-well plates. The cells were rinsed with 0.5 mL of binding buffer, and then treated successively with 100 μL binding buffer, 100 μL of binding buffer containing various amounts of unlabeled competitor ligand, and 100 μL of binding buffer containing ca. 100,000 cpm of ^125I-[M]PTH(1-21) or ^125I-[Aib^1,3,M]PTH(1-21)} (ca. 26 fmol; final volume=300 μL). Incubations were 4 to 6 h at 4° C., at which time near equilibrium conditions were attained. Cells were then placed on ice, the binding medium was removed, and the monolayer was rinsed three times with 0.5 mL of cold binding buffer. The cells were subsequently lysed with 0.5 mL […] and counted for radioactivity. For each tracer and in each experiment, the non-specific binding was determined as the radioactivity that bound in the presence of the same unlabeled peptide at a concentration of 1 μM, and was ˜1% of total radioactivity added for each tracer. The maximum specific binding (B0) was the total radioactivity bound in the absence of competing ligand, corrected for nonspecific binding, and for each tracer, ranged from 8% to 20% of the total radioactivity added. Nonlinear regression was used to calculate binding IC50 values (see below). Scatchard transformations of homologous competition binding data derived from studies with 26 fmol of ^125I-[Aib^1,3,M]PTH(1-21) were employed for estimations of apparent equilibrium dissociation constant (kDapps) and total number of ligand binding sites (Bmax), assuming a single class of binding sites and equal affinities of the iodinated and non iodinated ligand.
as §3
The P1R-binding properties of these analogs were assayed in competition studies performed in […]. In previous studies, PTH(1-14) binding could not be detected using ^125I-PTH(1-34) and related N-terminally intact and relatively unmodified radioligands (Luck, M. D., et al., Molecular Endocrinology 13:670-680 (1999)). […]

human P1R [3] = biological target: T2, human P1R; test: cAMP stimulation in HKRK-B28 cells; type: cell-based; conditions: basal 4.0 ± 0.1 pmole/well not subtracted
Experimental: as §1, §2, §3

[4] = biological target: T3, P1R-delNt, truncated human P1R deleted for residues (24-181) (Homo sapiens, UniProt Q03431); test: Competition binding in COS-7 cells expressing hP1R-delNt; conditions: COS-7 cells
T3 construct: expressed in transfected cells; host or cells: COS-7 (transient, FuGENE 6)
T3 sequence (Q03431 with tags, fused parts or gaps limits assumed): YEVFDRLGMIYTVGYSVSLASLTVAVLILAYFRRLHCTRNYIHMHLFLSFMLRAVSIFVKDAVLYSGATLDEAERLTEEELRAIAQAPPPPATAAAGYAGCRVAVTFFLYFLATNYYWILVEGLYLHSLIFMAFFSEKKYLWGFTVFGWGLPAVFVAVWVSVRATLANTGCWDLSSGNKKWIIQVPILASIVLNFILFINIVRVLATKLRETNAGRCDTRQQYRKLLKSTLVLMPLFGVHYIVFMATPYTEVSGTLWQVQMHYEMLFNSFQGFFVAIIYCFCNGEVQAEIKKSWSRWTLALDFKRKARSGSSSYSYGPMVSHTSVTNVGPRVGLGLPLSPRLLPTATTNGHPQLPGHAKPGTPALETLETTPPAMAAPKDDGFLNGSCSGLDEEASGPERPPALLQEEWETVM

[5] = biological target: T4, wild-type human P1R (hP1R-WT) (Homo sapiens, UniProt Q03431); test: Competition binding in COS-7 cells expressing hP1R-WT; conditions: P1R-WT; Scatchard transformation of homologous competition binding; read-out: apparent equilibrium dissociation constant (KDapp)
T4 construct: expressed in transfected cells; host or cells: COS-7 (transient, FuGENE 6)
T4 sequence (Q03431 27-593): T1 sequence (Q03431 27-593)
Experimental: as §1, §4
Data Calculation. Calculations were performed using Microsoft® Excel. Nonlinear regression analyses of binding and cAMP dose-response data were performed using the four-parameter equation: yp=Min+[(Max−Min)/(1+(IC50/x)^slope)]. […] Differences between paired data sets were statistically evaluated using a one-tailed Student's t-test, assuming unequal variances for the two sets. […]

[6] = biological target: T3, P1R-delNt, truncated human P1R deleted for residues (24-181); test: cAMP stimulation in COS-7 cells expressing hP1R-delNt; type: cell-based; conditions: hP1R-delNT, basal 9.5 ± 1.3, asterisk = plateau not attained
Experimental: as §1, §2, §3
The possibility that the activity-enhancing effects of the Aib substitutions at positions 1 and 3 were mediated through the juxtamembrane (J) region of the receptor was investigated in COS-7 cells transiently transfected with P1R-delNt. P1R-delNt was a truncated P1R that lacked most of the amino-terminal extracellular domain.

[7] = biological target: T4, wild-type human P1R (hP1R-WT); test: cAMP stimulation in COS-7 cells expressing hP1R-WT; type: cell-based; conditions: hP1R-WT, basal 10.3 ± 1.1, asterisk = plateau not attained
Experimental: as §1, §2, §3

human P1R [8] = biological target: T2, human P1R; conditions: HKRK-B28 cells; previously shown (Shimizu et al., Endocrinology 2001); read-out: cAMP EC50; cited from earlier work

fold more potent in stimulating cAMP formation than [M]PTH(1-14) [1] | EMAX(obs.) [1] | fold improvement of apparent binding affinity relative to [M]PTH(1-14) (human P1R [2]) | cAMP EMax(obs.) (human P1R [3]) | affinity at P1R-delNt, fold weaker than at P1R-WT [4] | Binding IC50 ([4]; hP1R-delNT, tracer 125I-[Aib^1,3,M]PTH(1-21), N.B. = no inhibition of tracer binding) | Kd [5] | cAMP EMax(obs.) [6] | cAMP EMax(obs.) [7] | Molecule | EC50 (human P1R [8])
15 fold | 340 ± 30 pmole/well | approximately 10 fold | 273 ± 6 pmole/well |  |  |  |  |  | CC[C@H](C)[C@H](NC(=O)[C@H](CCC(=O)O)NC(=O)[C@H](C)NC(=O)[C@@H](NC(=O)C(C)(C)N)C(C)C)C(=O)N[C@@H](CCC(N)=O)C(=O)N[C@@H](CC(C)C)C(=O)N[C@@H](CCSC)C(=O)N[C@@H](Cc1c[nH]cn1)C(=O)N[C@@H](CCC(N)=O)C(=O)N[C@@H](CCCCNC(=N)N)C(=O)N[C@@H](C)C(=O)N[C@@H](CCCCN)C(=O)N[C@@H](Cc1c[nH]c2ccccc12)C(N)=O [Aib-1, AibValAlaGluIleGlnLeuMetHisGlnHarAlaLysTrp] (H-[Aib]VAEIQLMHQ[hArg]AKW-NH2) | 
8 fold | 330 ± 30 pmole/well | approximately 10 fold | 269 ± 7 pmole/well |  |  |  |  |  | CC[C@H](C)[C@H](NC(=O)[C@H](CCC(=O)O)NC(=O)C(C)(C)NC(=O)[C@@H](NC(=O)[C@H](C)N)C(C)C)C(=O)N[C@@H](CCC(N)=O)C(=O)N[C@@H](CC(C)C)C(=O)N[C@@H](CCSC)C(=O)N[C@@H](Cc1c[nH]cn1)C(=O)N[C@@H](CCC(N)=O)C(=O)N[C@@H](CCCCNC(=N)N)C(=O)N[C@@H](C)C(=O)N[C@@H](CCCCN)C(=O)N[C@@H](Cc1c[nH]c2ccccc12)C(N)=O [Aib-3, AlaValAibGluIleGlnLeuMetHisGlnHarAlaLysTrp] (H-AV[Aib]EIQLMHQ[hArg]AKW-NH2) | 
 |  |  | 284 ± 76 pmole/well | < 2 fold | effectively inhibited the binding | 0.017 ± 0.002 µM | 240 ± 20 pmole/well | 300 ± 30 pmole/well | CCCC[C@H](NC(=O)[C@H](CC(C)C)NC(=O)[C@H](CCC(N)=O)NC(=O)[C@@H](NC(=O)[C@H](CCC(=O)O)NC(=O)C(C)(C)NC(=O)[C@@H](NC(=O)C(C)(C)N)C(C)C)[C@@H](C)CC)C(=O)N[C@@H](Cc1c[nH]cn1)C(=O)N[C@@H](CCC(N)=O)C(=O)N[C@@H](CCCCNC(=N)N)C(=O)N[C@@H](C)C(=O)N[C@@H](CCCCN)C(=O)N[C@@H](Cc1c[nH]c2ccccc12)C(=O)N[C@@H](CC(C)C)C(=O)N[C@@H](C)C(=O)N[C@@H](CO)C(=O)N[C@H](C(=O)N[C@@H](CCCNC(=N)N)C(=O)N[C@@H](CCCNC(=N)N)C(=O)N[C@@H](Cc1ccc(O)cc1)C(N)=O)C(C)C [[Aib^1,3,M]PTH(1-21), AibValAibGluIleGlnLeuNleHisGlnHarAlaLysTrpLeu-AlaSerValArgArtTyr] (H-[Aib]V[Aib]EIQL[Nle]HQ[hArg]AKWLASVRRY-NH2) | 
 |  |  |  |  |  |  |  |  | [Ala^3,Gln^10]PTH(1-10) (SVAEIQLMHQ-NH2; UniProt P01270 32-41, looked up, variant S3A N10Q) | ~800 µM

— patent publication US7572765B2, “Conformationally constrained parathyroid hormone (PTH) analogs” (The General Hospital Corporation, priority 2001, dated 2009)
